Converted amounts (≈) assume the structure as drawn. Where a SMILES comes first, the peptide text is derived from it.
What was measured:
S. Maltophilia 090223 = experiment: microbe, parasite or virus in culture; type: cell-based; settings: 090223, 18 h
Method in brief: (§1)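 Two-fold broth microdilution in Mueller-Hinton broth: exponential-phase microbes were diluted to 10^6 CFU/mL, then mixed 1:1 with serially diluted peptide. Plates were shaken at 37 °C for 18 h and read at A595. MIC is the lowest concentration with no growth, averaged over three independent experiments.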

[1] = system: Shigella dysenteriae 0804203; experiment: microbe, parasite or virus in culture; type: cell-based; settings: Gram-negative; two-fold broth microdilution, MH broth, 37 °C, 18 h; mean of three independent experiments in duplicates
Method in brief: as §1

S. Aureus 08032810 = experiment: microbe, parasite or virus in culture; type: cell-based; settings: 08032810, 18 h
Method in brief: as §1

[2] = system: Nocardia asteroides 08052412; experiment: microbe, parasite or virus in culture; type: cell-based; settings: 18 h
Method in brief: as §1

Proteus mirabilis 1376 = experiment: microbe, parasite or virus in culture; type: cell-based; settings: 1376, 18 h
Method in brief: as §1

Vibrio harveyi = experiment: microbe, parasite or virus in culture; type: cell-based; settings: 18 h
Method in brief: as §1

K. Pneumoniae 08040202 = experiment: microbe, parasite or virus in culture; type: cell-based; settings: 08040202, 18 h
Method in brief: as §1

K. Pneumoniae 08031012 = experiment: microbe, parasite or virus in culture; type: cell-based; settings: 08031012, 18 h
Method in brief: as §1

[3] = system: Escherichia coli ATCC25922; experiment: microbe, parasite or virus in culture; type: cell-based; settings: ATCC25922, 18 h
Method in brief: as §1

P. Aeruginosa 08021015 = experiment: microbe, parasite or virus in culture; type: cell-based; settings: 08021015, 18 h
Method in brief: as §1

S. Aureus 08032706 = experiment: microbe, parasite or virus in culture; type: cell-based; settings: 08032706, 18 h
Method in brief: as §1

Aeromonas veronii = experiment: microbe, parasite or virus in culture; type: cell-based; settings: 18 h
Method in brief: as §1

[4] = system: Bacillus subtilis 08042313; experiment: microbe, parasite or virus in culture; type: cell-based; settings: 08042313, 18 h
Method in brief: as §1

[5] = system: Enterococcus faecium 08052315; experiment: microbe, parasite or virus in culture; type: cell-based; settings: 08052315, 18 h
Method in brief: as §1

[6] = system: Candida albicans 08030102; experiment: microbe, parasite or virus in culture; type: cell-based; settings: 08030102, 18 h
Method in brief: as §1

S. Aureus 08032615 = experiment: microbe, parasite or virus in culture; type: cell-based; settings: 08032615, 18 h
Method in brief: as §1

E. Coli 08032823 = experiment: microbe, parasite or virus in culture; type: cell-based; settings: 08032823, 18 h
Method in brief: as §1

E. coli 08040726 = type: cell-based; settings: 08040726, 18 h
Method in brief: as §1

S. dysenteria = type: cell-based; settings: two-fold broth microdilution, MH broth, 37 °C, 18 h, A595; mean of three independent experiments in duplicate
Method in brief: as §1

E. coli = type: cell-based; settings: 18 h
Method in brief: as §1

B. subtilis = type: cell-based; settings: 18 h
Method in brief: as §1

P. mirabilis = type: cell-based; settings: 18 h
Method in brief: as §1

C. albican = type: cell-based; settings: 18 h
Method in brief: as §1

S. aureus = type: cell-based; settings: 18 h
Method in brief: as §1

P. aeruginosa = type: cell-based; settings: 18 h
Method in brief: as §1

trypsin or proteinase K = settings: peptide:protease 300/1 mol/mol, 30 min, 37 °C, then 1 × MIC 2 h with E. coli, S. aureus, C. albicans; colony counting; Fig. 3E
trypsin = experiment: Protease stability, RP-HPLC analysis of degradation; type: in vitro ADME; settings: trypsin, 300:1, 0.1 M NH4HCO3 pH 8.2, 37 °C, 6 h; RP-HPLC; Fig. 4
Description: To further examine the stability of TIH3F incubated with enzymes (trypsin and protease K) over time, the LC analysis of peptide degradation over a series of time spans (0, 6, 12, 24 h) was performed. TIH3F and protease solution were prepared in 0.1 M NH4HCO3 buffer (pH 8.2) to final molar ratio of 300:1, and incubated at 37 °C for 6, 12, and 24 h, respectively. Then 150 μL aliquots were taken at given time intervals, diluted with 150 μL of water/acetonitrile (60/40 v/v) containing 2% TFA, and analyzed by RP-HPLC (Thermo Scientific Syncronis C18 column, 250 mm × 4.6 mm, 5 μm), eluted with acetonitrile/water (containing 0.1% TFA) mixture of linear gradient concentration.

[7] = 20% fresh human serum, 37 °C, colonies surviving 1 × MIC, Fig. 3B
[8] = system: C. albicans biofilm formation; experiment: Biofilm inhibition assay (XTT); type: cell-based; settings: Candida albicans, 4 μg/mL, 36 h, 35 °C, Fig. 2A
Description: TIH3F that has the best antifungal activity among the four peptides was chosen to examine the effect on the C. albicans biofilm formation and the established biofilm using previously described method with minor modifications. In the biofilm inhibition assay, after the incubation at 35 °C, C. Albicans was diluted to 1 × 10^6 CFU/mL in RPMI-1640 medium. Then 2 mL culture was added to each well of 6-well plates with coverslips at the bottom, and incubated at 35 °C in a humid chamber for 3 h. Non-adherent cells were then washed away by PBS, and series concentrations of TIH3F (0, 1, 2, 4 μg/mL) were added into the plate, with amphotericin B as control. The formation of the biofilm was determined by the XTT Cell Proliferation and Cytotoxicity Kit (KeyGEN BioTECH, Nanjing, China) after 36-h incubation. In the biofilm disruption assay, the biofilm was preformed as described above but with a longer incubation time up to 72 h. Then TIH3F and amphotericin B of series concentrations (0, 2.5, 5, 10, 25, 50 μg/mL) was added after non-adherent cells were washed out. The measurement of remaining biofilm was then determined. […] After washing with PBS, the plate was immediately photographed with fluorescence microscope.

[9] = system: established C. albicans biofilm; experiment: Biofilm disruption assay, established biofilm (XTT, PI/SYBR Green I); type: cell-based; settings: 5 μg/mL, biofilm preformed 72 h, XTT metabolic activity; Fig. 2B
Description: TIH3F that has the best antifungal activity among the four peptides was chosen to examine the effect on the C. albicans biofilm formation and the established biofilm using previously described method with minor modifications. In the biofilm inhibition assay, after the incubation at 35 °C, C. Albicans was diluted to 1 × 10^6 CFU/mL in RPMI-1640 medium. Then 2 mL culture was added to each well of 6-well plates with coverslips at the bottom, and incubated at 35 °C in a humid chamber for 3 h. Non-adherent cells were then washed away by PBS, and series concentrations of TIH3F (0, 1, 2, 4 μg/mL) were added into the plate, with amphotericin B as control. The formation of the biofilm was determined by the XTT Cell Proliferation and Cytotoxicity Kit (KeyGEN BioTECH, Nanjing, China) after 36-h incubation. In the biofilm disruption assay, the biofilm was preformed as described above but with a longer incubation time up to 72 h. Then TIH3F and amphotericin B of series concentrations (0, 2.5, 5, 10, 25, 50 μg/mL) was added after non-adherent cells were washed out. The measurement of remaining biofilm was then determined. In order to further confirm the antifungal effect of TIH3F against C. albicans encased in biofilms, the established biofilm was treated with TIH3F (0, 5, 50 μg/mL), washed three times with PBS, and finally stained with 1 mL 1000-fold diluted PI/SYBR Green I at 30 °C in the dark for 20 min. After washing with PBS, the plate was immediately photographed with fluorescence microscope.

SMILES: CC(C)C[C@H](NC(=O)[C@H](CCCNC(=N)N)NC(=O)[C@H](CCCCN)NC(=O)[C@H](Cc1ccccc1)NC(=O)[C@H](Cc1ccccc1)NC(=O)[C@@H](N)CCCCN)C(=O)N[C@@H](CC(C)C)C(=O)N[C@@H](CCCCN)C(=O)N[C@@H](CO)C(=O)N[C@H](C(=O)N[C@@H](CCCNC(=N)N)C(=O)N[C@@H](CCCNC(=N)N)C(=O)N[C@@H](C)C(=O)N[C@H](C(=O)N[C@@H](CCCCN)C(=O)N[C@@H](CCCCN)C(=O)N[C@@H](Cc1ccccc1)C(N)=O)C(C)C)C(C)C [Hc3] (H-KFFKRLLKSVRRAVKKF-NH2)
- MIC S. Maltophilia 090223 (S. Maltophilia 090223): 9.38 µg/mL (≈ 4.36 µM)
- MIC Shigella dysenteriae 0804203 [1]: 2.34 µg/mL (≈ 1.09 µM)
- MIC S. Aureus 08032810 (S. Aureus 08032810): 75 µg/mL (≈ 34.9 µM)
- MIC Nocardia asteroides 08052412 [2]: 4.69 µg/mL (≈ 2.18 µM)
- MIC Proteus mirabilis 1376 (Proteus mirabilis 1376): 4.68 µg/mL (≈ 2.18 µM)
- MIC Vibrio harveyi (Vibrio harveyi): 18.75 µg/mL (≈ 8.72 µM)
- MIC K. Pneumoniae 08040202 (K. Pneumoniae 08040202): 75 µg/mL (≈ 34.9 µM)
- MIC K. Pneumoniae 08031012 (K. Pneumoniae 08031012): 75 µg/mL (≈ 34.9 µM)
- MIC Escherichia coli ATCC25922 [3]: 18.75 µg/mL (≈ 8.72 µM)
- MIC P. Aeruginosa 08021015 (P. Aeruginosa 08021015): 9.38 µg/mL (≈ 4.36 µM)
- MIC S. Aureus 08032706 (S. Aureus 08032706): 75 µg/mL (≈ 34.9 µM)
- MIC Aeromonas veronii (Aeromonas veronii): 9.38 µg/mL (≈ 4.36 µM)
- MIC Bacillus subtilis 08042313 [4]: 9.38 µg/mL (≈ 4.36 µM)
- MIC Enterococcus faecium 08052315 [5]: 9.38 µg/mL (≈ 4.36 µM)
- MIC Candida albicans 08030102 [6]: 9.38 µg/mL (≈ 4.36 µM)
- MIC S. Aureus 08032615 (S. Aureus 08032615): 9.38 µg/mL (≈ 4.36 µM)
- MIC E. Coli 08032823 (E. Coli 08032823): 9.38 µg/mL (≈ 4.36 µM)
- MIC E. coli 08040726 (E. coli 08040726): 37.5 µg/mL (≈ 17.4 µM)
- MIC S. dysenteria (S. dysenteria): 2.34 µg/mL (≈ 1.09 µM)
- MIC E. coli (E. coli): 18.75 µg/mL (≈ 8.72 µM)
- MIC B. subtilis (B. subtilis): 9.38 µg/mL (≈ 4.36 µM)
- MIC P. mirabilis (P. mirabilis): 4.68 µg/mL (≈ 2.18 µM)
- MIC C. albican (C. albican): 9.38 µg/mL (≈ 4.36 µM)
- MIC S. aureus (S. aureus): 9.38 µg/mL (≈ 4.36 µM)
- MIC P. aeruginosa (P. aeruginosa): 9.38 µg/mL (≈ 4.36 µM)
- antimicrobial activity after treatment with trypsin or proteinase K (trypsin or proteinase K): almost lost its bactericidal ability
- degradation by trypsin (trypsin): the majority of which was rapidly digested
- bactericidal ability after incubation with human serum ([7]; 3 h): dropped more than half
- kill (%) after incubation with human serum ([7]; 6 h): almost diminished
- kill (%) / antimicrobial activity kept after incubation with human serum ([7]; 36 h): lost its bacterial inhibitory activity

SMILES: C[C@@H]1[C@H](O)[C@@H](C)/C=C/C=C/C=C/C=C/C=C/C=C/C=C/[C@H](O[C@@H]2O[C@H](C)[C@@H](O)[C@H](N)[C@@H]2O)C[C@@H]2O[C@](O)(C[C@@H](O)C[C@@H](O)[C@H](O)CC[C@@H](O)C[C@@H](O)CC(=O)O[C@H]1C)C[C@H](O)[C@H]2C(=O)O [amphotericin B, reference compound]
- inhibition at 4 µg/mL [8]: 25%
- damage of established C. albicans biofilm [9]: remained intact

— PMC5453931, “Cathelicidin-trypsin inhibitor loop conjugate represents a promising antibiotic candidate with protease stability” (Scientific Reports, 2017)
